US9771377B2, “Synthesis of FR901464 and analogs with antitumor activity” (University of Pittsburgh—Of the Commonwealth System of …, priority 2012, dated 2017)
Read-outs that look alike come from different tables or passages of the source.

Key:
MDA-MB-231 = test: Growth inhibition assay (MTS), MDA-MB-231; type: cell-based; conditions: 3 to 5 days
Method: (§1) Meayamycin, 4-TEGylated meayamycin, and 4-TEGylated FR901464 (right fragment) compounds were produced using the above protocols. The compounds were dissolved in dimethyl sulfoxide (DMSO) as 10 mM stocks and stored at −20° C. Prior to assays being performed, aliquots were thawed at room temperature and dilutions were prepared in RPMI 1640 medium containing 2% DMSO at 2×the desired concentration prior to addition to the cells.
(§2) The cells were grown at 37° C. in an atmosphere containing 5% carbon dioxide in corning cell culture flasks (25 cm^2) in RPMI 1640 cell culture medium containing 10% fetal bovine serum, 1% Penicillin/Streptomycin, and 1% L-Glutamine.
(§3) Cells were plated in 96 well plates at an initial density of 2,000 cells per well in 100 μL of medium and were incubated for 24 hours prior to compound addition. […] The compound was added to the cells at 2× the desired concentration in 100 μL cell culture medium. The cells were then incubated for an additional 3 to 5 days. Cell proliferation was measured using a commercial MTS solution (20 μL per well). The absorbance (at 490 nm and 630 nm) was measured by a Spectromax M2 plate reader (Molecular Devices). Each concentration treatment was done in quadruplets and the final numbers were averaged.

A549 = test: Growth inhibition assay (MTS), A549; type: cell-based; conditions: 3 to 5 days
Method: as §1, §2, §3

HCT116 = test: Growth inhibition assay (MTS), HCT116; type: cell-based
Method: as §1, §2, §3

JHU 012 = test: Growth inhibition assay (MTS), JHU 012; type: cell-based; conditions: 3 to 5 days
Method: as §1, §2, §3

PCI 13 = test: Growth inhibition assay (MTS), PCI 13; type: cell-based; conditions: 3 to 5 days
Method: as §1, §2, §3

cancer cell = test: Cancer cell antiproliferative activity (background statement); type: cell-based
Source text: This pharmacological profile for FR901464 has drawn considerable interest, focusing on its potential as an anticancer agent.

HEK-293-II = test: Growth inhibition assay (MTS), HEK-293-II; type: cell-based
Method: as §1, §2, §3

MCF-7 = test: Growth inhibition assay (MTS), MCF-7; type: cell-based
Method: as §1, §2
Cells were plated in 96 well plates at an initial density of 2,000 cells per well in 100 μL of medium and were incubated for 24 hours prior to compound addition. Serial two-fold dilutions were used in this experiment from 100 nM to 0.000191 nM. The compound was added to the cells at 2× the desired concentration in 100 μL cell culture medium. The cells were then incubated for an additional 3 to 5 days. Cell proliferation was measured using a commercial MTS solution (20 μL per well). The absorbance (at 490 nm and 630 nm) was measured by a Spectromax M2 plate reader (Molecular Devices). Each concentration treatment was done in quadruplets and the final numbers were averaged.

[1] = system: pre-mRNA splicing in HEK-293-II cells; test: HEK-293-II cell-based splicing inhibition assay (luciferase, RT-PCR)
Method: Splicing inhibition by PEGylated meayamycin was evaluated using the published HEK-293-II cell-based assay. In short, luciferase expression increases when pre-mRNA splicing is inhibited. Yang Gao et al., published online at Chem Bio Chem. Nov. 22, 2012 (DOI: 10.1002/cbic.201200558). […] (FIG. 1). Pre-mRNA splicing inhibition by 4-TEGylated meayamycin was examined in HEK-293-II cells over 72 h. The splicing inhibition, as manifested by the luciferase activity, in the 4-TEGylated meayamycin-treated cells persisted for 48 h, which was different from that in the meayamycin-treated cells. (FIG. 2).

MCF-7 cells = MCF-7 cells at 20 nM; cited from earlier work
tumor = conditions: mouse model; cited from earlier work
[2] = HEK-293-II, 3 to 5 days, MTS, read-out: GI50

Question: Which GI50 (MDA-MB-231; Homo sapiens) does the source give for `C=C[C@H]1OC(C)(C)C[C@@]2(CO2)[C@@H]1OCCOCCOCCOCCN=[N+]=[N-]` [4-TEGylated FR901464 (right fragment)] here?
Answer: 1500 nM

Question: And the GI50 (A549; Homo sapiens)?
Answer: 2200 nM

Question: And the GI50 (HCT116; Homo sapiens, HCT-116, HCT116, 3 to 5 days, MTS, read-out: GI50)?
Answer: 2200 nM

Question: What about the IC50 (HCT116; Homo sapiens, HCT-116, read-out: GI150, inhibition of HCT-116 proliferation) of the same compound?
Answer: 1500 nM

Question: And the GI50 (JHU 012)?
Answer: 2000 nM

Question: What about the GI50 (PCI 13) of the same compound?
Answer: 3700 nM

Question: And the “cancer cell antiproliferative activity” value (cancer cell)?
Answer: high cancer cell antiproliferative activity

Question: What about the GI50 (HEK-293-II; [2]) of the same compound?
Answer: 8900 nM

Question: Which results are given for `CC(=O)O[C@@H](C)/C=C\C(=O)N[C@@H]1C[C@H](C)[C@H](C/C=C(C)/C=C/[C@H]2OC(C)(C)C[C@@]3(CO3)[C@@H]2OCCOCCOCCOCCN=[N+]=[N-])O[C@@H]1C` [4-TEGylated meayamycin]?
Answer: GI50 (HCT116; Homo sapiens, HCT-116): 0.1 nM; GI50 (MCF-7; Homo sapiens, MCF7, 3 to 5 days): 2.4 nM; time the splicing inhibition (luciferase activity) persisted ([1]; HEK-293-II cells examined over 72 h, FIG. 2): 48 h; RT-PCR analysis of total RNA: pre-mRNA splicing ([1]; HEK-293-II cells, FIG. 1): inhibited pre-mRNA splicing; IC50 ([1]; HEK-293-II, luciferase, 16-h treatment, average of three independent experiments, read-out: IC150, inhibitory activity towards pre-mRNA splicing): 2.4 nM; GI50 (HEK-293-II): 46 nM

Question: For `CC(/C=C/[C@H]1OC(C)(C)C[C@@]2(CO2)[C@@H]1CCCOCCOCCOCCN=[N+]=[N-])=C\C[C@@H]1O[C@H](C)C(NC(=O)/C=C\[C@H](C)OC(=O)N2CCOCC2)C[C@@H]1C` (stereo partly shown) [4-TEGylated-FR901464 analog], which “cancer cell antiproliferative activity” value (cancer cell) is on record?
Answer: high cancer cell antiproliferative activity

Question: With `CC(=O)O[C@@H](C)/C=C\C(=O)N[C@@H]1C[C@H](C)[C@H](C/C=C(C)/C=C/[C@H]2O[C@](C)(O)C[C@@]3(CO3)[C@@H]2O)O[C@@H]1C` [FR901464] as the compound, how does the “mRNA levels of p53, p21, c-myc, and E2F-1” value (MCF-7 cells) read?
Answer: lowers the mRNA levels

Question: And the “concentrations at which antitumor activity is exhibited” value (tumor)?
Answer: 0.056 to 0.18 mg/kg

Question: For `CC(=O)O[C@@H](C)/C=C\C(=O)N[C@@H]1C[C@H](C)[C@H](C/C=C(C)/C=C/[C@H]2OC(C)(C)C[C@@]3(CO3)[C@@H]2O)O[C@@H]1C` [meayamycin, reference compound], which GI50 (MDA-MB-231) is on record?
Answer: 0.07 nM

Question: What about the GI50 (A549) of the same compound?
Answer: 0.26 nM

Question: And the GI50 (HCT116; HCT116, 3 to 5 days, MTS, read-out: GI50)?
Answer: 0.038 nM

Question: And the GI50 (JHU 012)?
Answer: 4.7 nM

Question: And the GI50 (PCI 13)?
Answer: 4.8 nM

Question: What about the GI50 (MCF-7; 3 to 5 days) of the same compound?
Answer: 0.8 nM

Question: And the GI50 (HEK-293-II; [2])?
Answer: 7.8 nM

Question: Which antiproliferation activity (HCT116; even at 200 μM) does the source give for `C=C[C@H]1OC(C)(C)C[C@@]2(CO2)[C@@H]1O` [right fragment without PEGylation, (3R,4R,5R)-7,7-dimethyl-5-vinyl-1,6-dioxaspiro[2.5]octan-4-ol] here?
Answer: no antiproliferation activity
